Data from ChEMBL document CHEMBL3808314, “Discovery and Optimization of Potent, Selective, and in Vivo Efficacious 2-Aryl Benzimidazole BCATm Inhibitors” (ACS Med Chem Lett, 2016).
Active and inactive are the calls of the source. No cut-off for these calls is given here.

Tests used:
[1] = molecular target: T1, Branched-chain-amino-acid aminotransferase, cytosolic (Homo sapiens, UniProt P54687); test: Inhibition of BCATc (unknown origin)
T1 sequence (P54687 whole entry): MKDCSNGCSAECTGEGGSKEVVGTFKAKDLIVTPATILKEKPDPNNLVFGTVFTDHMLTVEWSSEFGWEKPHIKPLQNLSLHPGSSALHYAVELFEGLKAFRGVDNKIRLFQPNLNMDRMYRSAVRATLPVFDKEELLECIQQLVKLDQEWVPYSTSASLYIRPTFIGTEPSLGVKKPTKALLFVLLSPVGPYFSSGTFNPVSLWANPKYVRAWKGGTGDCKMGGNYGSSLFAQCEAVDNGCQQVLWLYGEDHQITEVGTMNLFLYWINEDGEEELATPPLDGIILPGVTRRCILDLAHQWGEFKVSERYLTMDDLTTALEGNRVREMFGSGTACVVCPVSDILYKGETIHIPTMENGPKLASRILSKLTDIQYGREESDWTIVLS

[2] = Clearance in mouse blood at 1 mg/kg, iv; type: ADME, organism-based
[3] = Half life of compound in mouse at 1 mg/kg, iv; type: ADME, organism-based; details: in vivo
[4] = Volume of distribution at steady state in mouse at 1 mg/kg, iv; type: ADME, organism-based; details: in vivo, read-out: Vdss
[5] = AUC (0 to infinity) in mouse at 5 mg/kg, po; type: ADME, organism-based; parameters: dose 5 mg/kg, route oral, time infinity; details: in vivo
[6] = Cmax in mouse at 5 mg/kg, po; type: ADME, organism-based; parameters: dose 5 mg/kg, route oral; details: in vivo
[7] = Oral bioavailability in mouse at 5 mg/kg; type: ADME, organism-based; details: in vivo
[8] = Plasma protein binding in mouse; type: ADME, cell-free; details: read-out: PPB (converted)
[9] = tested on: Mus musculus; test: Increase in luecine level in C57Black/6J mouse serum at 300 mg/kg, po administered 5 hrs post fasting state followed by refeeding of amino acid mixture at 30 mins post dose measured after 1 hr by HPLC method; type: functional, organism-based
[10] = tested on: Mus musculus; test: Increase in isoluecine level in C57Black/6J mouse serum at 300 mg/kg, po administered 5 hrs post fasting state followed by refeeding of amino acid mixture at 30 mins post dose measured after 1 hr by HPLC method; type: functional, organism-based
[11] = tested on: Mus musculus; test: Increase in valine level in C57Black/6J mouse serum at 300 mg/kg, po administered 5 hrs post fasting state followed by refeeding of amino acid mixture at 30 mins post dose measured after 1 hr by HPLC method; type: functional, organism-based
[12] = tested on: Mus musculus; test: Increase in luecine level in po dosed C57Black/6J mouse serum administered 5 hrs post fasting state followed by refeeding of amino acid mixture at 6 hrs post dose measured after 1 hr by HPLC method relative to vehicle control; type: functional, organism-based
[13] = tested on: Mus musculus; test: Increase in isoluecine level in po dosed C57Black/6J mouse serum administered 5 hrs post fasting state followed by refeeding of amino acid mixture at 6 hrs post dose measured after 1 hr by HPLC method relative to vehicle control; type: functional, organism-based
[14] = tested on: Mus musculus; test: Increase in valine level in po dosed C57Black/6J mouse serum administered 5 hrs post fasting state followed by refeeding of amino acid mixture at 6 hrs post dose measured after 1 hr by HPLC method relative to vehicle control; type: functional, organism-based

IC50 [1] [nM]	clearance [2] [mL/min/kg]	half-life [3] [h]	Vd [4] [L/kg]	AUC(0-inf) [5] [ng·h/mL]	Cmax [6] [ng/mL]	bioavailability [7] [%]	fraction unbound [8]	SMILES	Activity [9]	Activity [10]	Activity [11]	Activity [12]	Activity [13]	Activity [14]
3980	4	3.7	0.9	5810	1650	28	0.029	CNC(=O)c1ccc2c(c1)nc(-c1ccccn1)n2[C@@H]1CCC[C@H](NC(=O)c2ccc(Br)s2)C1 (relative stereo)	Active	Active	Active	Dose-dependent effect	Dose-dependent effect	Dose-dependent effect
1260	23	1.4	1.3	338	129	10	0.005	CNC(=O)c1ccc2c(c1)nc(-c1ccccc1SC)n2[C@@H]1CCC[C@H](NC(=O)c2ccc(Br)s2)C1 (relative stereo)	–	–	–	–	–	–
